Assay results taken from article PMC12668308, “A Novel Antimalarial Agent that Inhibits Protein Synthesis in Plasmodium falciparum” (Angewandte Chemie (International Ed. in English), 2025).

How the values were obtained:
[1] = tested on: AAA family ATPase (W7JWU4); experiment: iSPP profiling, P. falciparum lysate; assay type: binding, Plasmodium falciparum
[2] = tested on: Dd2 DSM265 (Dd2 + pfdhodh); experiment: [3H]-hypoxanthine incorporation assay; assay type: cell-based, Plasmodium falciparum
Method: (§1) ^[a]72-h [^3H] hypoxanthhine incorporation assay. Data is expressed as mean±s.d..
(§2) P. falciparum asexual blood stage parasites were cultured in human red blood cells (RBC, Blutspende SRK, Zurich) at a hematocrit of 5% in RPMI 1640 medium. The RPMI 1640 medium (ThermoFisher Scientific #51800−043) was supplemented with the following: 24 mM NaHCO3 (pH 7.3, Sigma-Aldrich #31437−500G-R), 25 mM Hepes (Sigma-Aldrich #H4034−500G), 0.36 mM hypoxanthine (Sigma-Aldrich # H9377−25G), 100 µg mL^-1 neomycin (Sigma-Aldrich #N6386−100G) and 0.5% Albumax II (Thermo Fisher #11021−045). Additionally, 2 mM choline chloride (279 mg/L, Sigma-Aldrich #C7527−100G) was added to the culture to block the induction of sexual commitment as described. ^[31^] The RPMI 1640 medium and components were dissolved in water (Milli-Q purified), stirred for at least 3 h, and then sterile filtered (0.22 μm pore size) with a bottle top filter (Corning # 431118). Parasite cultures were maintained in an atmosphere of 3% O2, 4% CO2, and 93% N2 in air-tight chambers at 37 °C. The [^3H]-hypoxanthine incorporation assay was used to test compound activity in the specific parasite lines as described.^[32^] Briefly, compounds were dissolved in DMSO (10 mM) and diluted in a hypoxanthine-free culture medium. A limiting dilution was performed over a 64-fold range (6-step twofold dilution) in a 96-well plate in duplicates. For every starting concentration, a limiting dilution was performed over a 64-fold range (6-step twofold dilution) in a 96-well plate in two biological duplicates. Parasites were added at 100 µL to each well containing the compound to obtain a final parasitemia of 0.3% and haematocrit of 1.25%. The plates were incubated for 48 h before 0.25 µCi of [^3H]-hypoxanthine was added per well for an additional 24 h. Parasites were harvested on a glass-fiber filter with a Microbeta FilterMate cell harvester (Perkin Elmer, Waltham, USA) and radioactivity was counted using a MicroBeta2 liquid scintillation counter (Perkin Elmer, Waltham, US). The results were recorded, processed by subtraction of the mean background signal obtained from the uninfected RBC controls and expressed as percentage of untreated controls. The fifty percent inhibitory concentration (IC50) was calculated by using nonlinear, four parameter (variable slope) curve fitting as described ^[33^] after importing into GraphPad Prism (version 8.3.0).

[3] = tested on: Dd2 MMV390048 (Dd2 + pfpI4k); experiment: [3H]-hypoxanthine incorporation assay; assay type: cell-based, Plasmodium falciparum
Method: as §1, §2

[4] = tested on: Dd2 ELQ300 (Dd2 + pfcytb); experiment: [3H]-hypoxanthine incorporation assay; assay type: cell-based, Plasmodium falciparum
Method: as §1, §2

[5] = tested on: Dd2 GNF156 (Dd2 + pfcarl); experiment: [3H]-hypoxanthine incorporation assay; assay type: cell-based, Plasmodium falciparum
Method: as §1, §2

[6] = tested on: Dd2 DDD107458 (Dd2 + pfeEF2); experiment: [3H]-hypoxanthine incorporation assay; assay type: cell-based, Plasmodium falciparum
Method: as §1, §2

P. falciparum Dd2 = experiment: [3H]-hypoxanthine incorporation assay; assay type: cell-based, Plasmodium falciparum
Method: as §1, §2

[7] = tested on: Dd2 NITD609 (Dd2 + pfatp4); experiment: [3H]-hypoxanthine incorporation assay; assay type: cell-based, Plasmodium falciparum
Method: as §1, §2

[8] = tested on: Dd2 Fosmidomycin (Dd2 + pfdxr); experiment: [3H]-hypoxanthine incorporation assay; assay type: cell-based, Plasmodium falciparum
Method: as §1, §2

P. falciparum K1 = experiment: [3H]-hypoxanthine incorporation assay; assay type: cell-based, Plasmodium falciparum
Method: as §1, §2

[9] = Plasmodium falciparum, DD2, 72 h

For `CN1CCN(Cc2ccc(O)c(NC(=O)c3cccc(Oc4cc(C(F)(F)F)ccn4)c3)c2)CC1` [Compound 31, N-(2-hydroxy-5-((4-methylpiperazin-1-yl)methyl)phenyl)-3-((4-(trifluoromethyl)pyridin-2-yl)oxy)benzamide], the log2FC ([1]; 10 µM) was 0.33, the log2FC ([1]; 50 µM) was 0.46 and the log2FC ([1]; 100 µM) was 0.35. For the same molecule, the log2FC ([1]; 10^-2 µM) was 0.29, the log2FC ([1]; 10^-3 µM) was 0.18 and the “IC50 fold shift relative to Dd2 strain” value ([2]; Dd2 DSM265) was 0.3. The IC50 ([2]; Plasmodium falciparum, 72 h) was 2.8 ± 0.5 nM, the “IC50 fold shift relative to Dd2 strain” value ([3]; Dd2 MMV390048) was 0.5 and the IC50 [3, 9] was 4.8 ± 1.5 nM. For the same molecule, the “IC50 fold shift relative to Dd2 strain” value ([4]; Dd2 ELQ300) was 0.5, the IC50 [4, 9] was 4.4 ± 0.1 nM and the “IC50 fold shift relative to Dd2 strain” value ([5]; Dd2 GNF156) was 0.7. For the same molecule, the IC50 [5, 9] was 6.6 ± 0.5 nM, the “IC50 fold shift relative to Dd2 strain” value ([6]; Dd2 DDD107458) was 0.6 and the IC50 [6, 9] was 5.6 ± 0.9 nM. The “IC50 fold shift relative to Dd2 strain” value (P. falciparum Dd2; Dd2) was 1.0, the “IC50 ratio relative to NF54 strain” value (P. falciparum Dd2; Dd2) was 5.1 and the IC50 (P. falciparum Dd2; [9]) was 9.3 ± 0.4 nM. The “IC50 fold shift relative to Dd2 strain” value ([7]; Dd2 NITD609) was 0.7, the IC50 [7, 9] was 6.2 ± 2.5 nM and the “IC50 fold shift relative to Dd2 strain” value ([8]; Dd2 Fosmidomycin) was 0.3. For the same molecule, the IC50 [8, 9] was 2.4 ± 0.6 nM, the “IC50 ratio relative to NF54 strain” value (P. falciparum K1; K1) was 0.7 and the IC50 (P. falciparum K1; Plasmodium falciparum, K1, 72 h) was 1.3 ± 0.2 nM.
